Assay results published in patent publication US5153207A, “Piperidine derivative, method for preparation thereof, and a pharmaceutical composition comprising the same” (Hokuriku Pharmaceutical Co., Ltd., priority 1989, dated 1992).
Counter-ions that a name gives are not always drawn.

Assays:
[1] = system: passive cutaneous anaphylaxis (PCA) in rats; assay: 48 hr homologous passive cutaneous anaphylaxis (PCA) in rats; assay type: in vivo, male Wistar rats; details: 1 hr prior to challenge with antigen; for inhibition in vivo at 1 mg/kg: Rattus norvegicus, po, read-out: the percent inhibition of PCA in rats
Procedure: The following compounds were used as the reference compounds. 1.48 hr homologous passive cutaneous anaphylaxis (PCA) in rats a) Preparation of DNP-As and rat anti-DNP-As serum Ascaris extract coupled with 2,4-dinitrophenyl group (DNP-As) was prepared by the method of Koda et al. (Folia pharmacol. japon., 78, 319-334, 1981) and anti-DNP-As containing IgE antibody serum was prepared by the method of Tada and Okumura (J. Immunol., 106, 1019-1025, 1971). […] b) 48 hr homologous passive cutaneous anaphylaxis (PCA) in rats Male Wistar rats weighing 160 to 220 g were sensitized passively by intradermal injection in the back, of 0.05 ml of anti-DNP-As serum, diluted 21-fold with saline. […] After additional thirty minutes, the animals were killed by stunning and the skins were removed. The intensity of the response was evaluated by assaying the amount of dye leaked according to the method of Katayama et al. (Microbiol. Immunol., 22, 89-101, 1978). […] Test compounds were given orally in a dose 1.0 mg/kg 1 hr prior to challenge with antigen. As a control, 5 ml/kg of vehicle (0.5% CMC) alone were given in a similar manner.

[2] = system: hexobarbital-induced anesthesia in mice; parameters: species or system male ddY mice; details: mouse, in vivo
Text: The results of 48 hr homologous passive cutaneous anaphylaxis (PCA) in rats with the monitoring of antiallergic activity and potentiation of hexobarbital-induced anesthesia in mice with the monitoring of central nervous depressive activity are summarized in Table 1. The following compounds were used as the reference compounds.
2. Potentiation of hexobarbital-induced anesthesia in mice
The loss of righting reflex induced by hexobarbital was used as an index of anesthesia. Groups of eight male ddY mice (20-24 hr fasted) weighing 19 to 27 g were treated orally with the test compounds (30 mg/kg) or vehicle. Thirty minutes later, 80 mg/kg of hexobarbital sodium were injected i.p. to the animals and the duration of loss of righting reflex was observed. The percent increase of sleeping time was calculated using the following formula: [formula]

Compound	inhibition in vivo at 1 mg/kg [1] [%]	the percent increase of hexobarbital-induced anesthesia in mice [2] [%]	the percent inhibition of PCA in rats ([1]; 1 mg/kg, p.o., hydrochloride) [%]
Cc1ccc(C(OC2CCN(CCC(=O)O)CC2)c2ccccc2)cc1.Cl (racemic) [Example 70, (±)-4-[(4-Methylphenyl)phenylmethoxy]-1-piperidinepropionic acid hydrochloride]	51	-2	
Cl.O=C(O)CCN1CCC(OC(c2ccccc2)c2ccccc2)CC1 [Example 65, 4-(Diphenylmethoxy)-1-piperidinepropionic acid hydrochloride]	62	29	
CCOC(=O)Oc1ccc(C=CC=CC(=O)NCCN2CCC(OC(c3ccccc3)c3ccccc3)CC2)cc1OC [Reference compound B, N-[2-[4-(diphenylmethoxy)piperidino]ethyl]-5-[4-(ethoxycarbonyloxy)-3-methoxyphenyl]-2,4-pentadienoylamide, reference compound]	8	35	
Cc1ccc(C(OC2CCN(CCCCC(=O)O)CC2)c2ccccc2)cc1.Cl (racemic) [Example 72, (±)-4-[(4-Methylphenyl)phenylmethoxy]-1-piperidinevaleric acid hydrochloride]	63	12	
Cc1ccc(C(OC2CCN(CCCC(=O)O)CC2)c2ccccc2)cc1.Cl (racemic) [Example 71, (±)-4-[(4-Methylphenyl)phenylmethoxy]-1-piperidinebutyric acid hydrochloride]	65	3	
COC(=O)CCCCCN1CCC(OC(c2ccccc2)c2ccc(C)cc2)CC1.Cl (single isomer, unassigned; (+)) [Example 62, (+)-Methyl 4-[(4-methylphenyl)phenylmethoxy]-1-piperidinecaproate hydrochloride]	56	29	
CCc1ccc(C(OC2CCN(CCCCCC(=O)O)CC2)c2ccccc2)cc1.Cl (racemic) [Example 77, (±)-4-[(4-Ethylphenyl)phenylmethoxy]-1-piperidinecaproic acid hydrochloride]	68	24	
COc1ccc(C(OC2CCN(CCCC(=O)O)CC2)c2ccccc2)cc1.Cl (racemic) [Example 87, (±)-4-[(4-Methoxyphenyl)phenylmethoxy]-1-piperidinebutyric acid hydrochloride]	54	18	
CN1CCC(OC(c2ccccc2)c2ccccc2)CC1 [Reference compound A, diphenylpyraline hydrochloride, reference compound]	-1	75	
COC(=O)CCCCCN1CCC(OC(c2ccccc2)c2ccc(C)cc2)CC1.Cl (racemic) [Example 1, (±)-Methyl 4-[(4-methylphenyl)phenylmethoxy]-1-piperidinecaproate hydrochloride]	77	16	
COc1ccc(C(OC2CCN(CCC(=O)O)CC2)c2ccccc2)cc1.Cl (racemic) [Example 86, (±)-4-[(4-Methoxyphenyl)phenylmethoxy]-1-piperidinepropionic acid hydrochloride]	60	4	
Cc1ccc(C(OC2CCN(CCCCCC(=O)O)CC2)c2ccccc2)cc1.Cl (single isomer, unassigned; (-)) [Example 126, (-)-4-[(4-Methylphenyl)phenylmethoxy]-1-piperidinecaproic acid hydrochloride]		-1	36
Cl.O=C(O)CCCCN1CCC(OC(c2ccc(F)cc2)c2ccc(F)cc2)CC1 [Example 120, 4-[Bis(4-fluorophenyl)methoxy]-1-piperidinevaleric acid hydrochloride]	64	-12	
Cl.O=C(O)CCCCN1CCC(OC(c2ccccc2)c2ccc(F)cc2)CC1 (racemic) [Example 116, (±)-4-[(4-Fluorophenyl)phenylmethoxy]-1-piperidinevaleric acid hydrochloride]	83	31	
Cc1ccc(C(OC2CCN(CCCCCCC(=O)O)CC2)c2ccccc2)cc1.Cl (racemic) [Example 73, (±)-4-[(4-Methylphenyl)phenylmethoxy]-1-piperidineheptanoic acid hydrochloride]	67	2	
Cc1ccc(C(OC2CCN(CCCCCCCC(=O)O)CC2)c2ccccc2)cc1.Cl (racemic) [Example 74, (±)-4-[(4-Methylphenyl)phenylmethoxy]-1-piperidineoctanoic acid hydrochloride]	59	21	
Cl.O=C(O)CCCN1CCC(OC(c2ccccc2)c2ccccc2Cl)CC1 (racemic) [Example 112, (±)-4-[(2-Chlorophenyl)phenylmethoxy]-1-piperidinebutyric acid hydrochloride]	53	29	
Cl.O=C(O)CCCN1CCC(OC(c2ccccc2)c2ccc(F)cc2)CC1 (racemic) [Example 115, (±)-4-[(4-Fluorophenyl)phenylmethoxy]-1-piperidinebutyric acid hydrochloride]	73	21	
COc1ccc(C(OC2CCN(CCCCCC(=O)O)CC2)c2ccccc2)cc1.Cl (racemic) [Example 89, (±)-4-[(4-Methoxyphenyl)phenylmethoxy]-1-piperidinecaproic acid hydrochloride]	71	20	
Cc1ccc(C(OC2CCN(CCCCCC(=O)O)CC2)c2ccccc2)cc1.Cl (single isomer, unassigned; (+)) [Example 125, (+)-4-[(4-Methylphenyl)phenylmethoxy]-1-piperidinecaproic acid hydrochloride]	55	29	
Cc1ccc(C(OC2CCN(CCCCCC(=O)O)CC2)c2ccccc2)cc1.Cl (racemic) [Example 64, (±)-4-[(4-Methylphenyl)phenylmethoxy]-1-piperidinecaproic acid hydrochloride]	68	-8	
